From patent publication EP3632468B1, “5-IODO-4-THIO-2'-DEOXYURIDINE FOR USE AS A RADIOSENSITIZER IN RADIOTHERAPY” (Uniwersytet Gdanski, priority 2018, dated 2020) come the findings set out here.

Holding throughout (assay type): cell-based
Data set [1] relates to human breast cancer cells - MCF-7 line. The data set can be described thus: MTT cytotoxicity assay, MCF-7. The settings on record: MCF7, light or radiation study, 100 µM ISdU, 48 h incubation, no irradiation, read-out: MCF-7 cells viability compared to the control. Here is the method:
(§1) Cytotoxic activity was determined using the MTT assay after incubation of MCF-7 (CLS, Eppelheim) or HDFa (Gibco Invitrogen) cells with ISdU. The MCF-7 cells were grown in RPMI supplemented with 10% FBS and antibiotics (streptomycin and penicillin) at a concentration of 100 U·mL^-1. The HDFa cells were grown in DMEM supplemented with 10% FBS and antibiotics (streptomycin and penicillin) at the same concentration. Cells at a density of 4·10^3 per well were seeded into a 96-well plate and incubated (37°C, 5% CO2) for 24 h. Then, the medium was freshly changed, and the cells were treated with ISdU at concentrations of 0 (control), 10^-4, 5·10^-5, 10^-5, 10^-6, 10^-7 and 10^-8 M. Cells were incubated with ISdU for 24 h and 48 h. After this time, the aqueous MTT salt solution at a concentration of 4 mg·mL^-1 was added to each well. After 4 h of incubation, the medium was removed and 200 µL of dimethylsulfoxide (DMSO) was added to dissolve the formazan crystals. The absorbance was measured at 570 nm (with 660 nm taken as the reference) on an EnSpire microplate reader (PerkinElmer). […] The results were analyzed with the use of GraphPad Prism software. The statistical evaluation of treated samples and untreated controls was calculated using one-way analysis of variance (ANOVA) followed by […] multiple comparison test. […]

For data set [2], the system named is human dermal fibroblasts - HDFa line. The data set can be described thus: MTT cytotoxicity assay, HDFa. The settings on record: ISdU 10^-8 to 10^-4 M, 24 h and 48 h incubation, no irradiation. As to the method:
as §1

Data set [3] concerns MCF-7 cells (human breast cancer cells). The data set can be described thus: Cytometric analysis of phosphorylation of histone H2A.X (double strand break marker). The settings on record: 10^-4 M ISdU 48 h. Here is the method:
One of the damages caused by ISdU are double strand break of DNA, whose molecular marker is phosphorylation of histone H2A.X. To confirm the application of the compound in radiotherapy, the cytometric analysis of phosphorylation of histone H2A.X, molecular marker of double strand break of DNA was carried out.
The MCF-7 cells (human breast cancer cells) were grown up in RPMI medium supplemented with 10 % FBS (fetal bovine serum) and antibiotics (penicillin and streptomycin) at a concertation of 100 U · ml^-1. The cells were treated with ISdU at the concentration of 10^-4 M and incubated (37°C, 5% CO2) for 48 h. Upon this time, plate cultures were X-ray irradiated with doses of 1 Gy and 2 Gy, using of e.g. Cellrad X-ray cabinet, Faxitron X-ray Corporation, and incubated for 1 h in the same condition. Next, the cells were detached with solution of Accutase (Life Technologies, UK), fixed and permeabilized (fixation and permeabilization was performed by the manufacturer's protocol FlowCellect™ Histone H2A.X Phosphorylation Assay Kit, Merck). Prepared cells were analyzed by cytometric using of e.g. Guava easyCyte™, Merck. The experiment was performed in triplicated. The non-treated cells were a control.

Regarding `O=c1[nH]c(=S)c(I)cn1[C@H]1C[C@H](O)[C@@H](CO)O1` [ISdU, 5-iodo-4-thio-2'-deoxyuridine], the viability (in general, a per cent measure of how many cells are alive, often set against a control) at 100 µM in data set [1] was found to be 91 ± 3%. In addition, in data set [2], the HDFa cell viability result was “a statistically significant decrease in cell viability was not observed”. For the same molecule, the γH2A.X positive cells in data set [3] (1 Gy X-ray, measured 1 h after irradiation (control 26.56 ± 1.14%)) is given as 35.15 ± 1.48%; in data set [3] (2 Gy X-ray, measured 1 h after irradiation (control 49.38 ± 3.8%)), 60.25 ± 2.98%.
